Data set [1] in a line: HLM stability (High Activity). In kind it is in vitro ADME. To be noted: both sexes, human, liver microsomes, pH 7.4, Condition 2 (High Activity), 1.0 mg protein/mL. As to the method:
(§1) HLM Stability (High Activity). Pooled HLM from adult male and female donors (XenoTech H0630) were used. Microsomal incubations were carried out in 96-well plates in 5 aliquots of 40 μL, each (one for each time point). Liver microsomal incubation medium consisted of PBS (100 mM, pH 7.4), MgCl2 (3.3 mM), NADPH (3 mM), glucose-6-phosphate (5.3 mM), and glucose-6-phosphate dehydrogenase (0.67 units/mL), with 1.0 mg of liver microsomal protein per mL. Control incubations were performed by replacing the NADPH-cofactor system with PBS. Test compounds (1 μM, final solvent concentration 1.6%) were incubated with microsomes at 37° C., shaking at 100 rpm. Incubations were performed in duplicate. Five time points over 60 minutes were analyzed. The reactions were stopped by adding 12 volumes of 90% acetonitrile-water to incubation aliquots, followed by protein sedimentation by centrifugation at 5500 rpm for 3 minutes. Supernatants were analyzed for parent compound remaining using a fit-for-purpose liquid chromatography-tandem mass spectrometry (LC-MS/MS) method, with authentic samples of each analyte used for identity confirmation.
(§2) Data Analysis. The elimination constant (kel), half-life (t1/2) and intrinsic clearance (Clint) were determined in a plot of […] versus time, using linear regression analysis.
On the technique in general: Liver microsomes are vesicles of endoplasmic reticulum, rich in cytochrome P450 enzymes.

Data set [2] in a line: MLM stability (High Activity). To be noted: male, BALB/c, mouse, liver microsomes, pH 7.4, Condition 2 (High Activity), 1.0 mg protein/mL. The class given is in vitro ADME, BALB/c mice. As to the method: as §1, with “MLM” for “HLM”, “from” for “from adult”, “BALB/c mice” for “and female donors”, “M3000)” for “H0630)”, “μL” for “μL,”, “9” for “12”
as §2

The target of data set [3] is MK-801 binding site of the N-methyl-D-aspartate receptor (NMDAR). Put plainly: NMDAR radioligand binding with [3H]MK-801, Method B. To be noted: MK-801 site, Method B, male Sprague Dawley rat cortex, 5.0 nM [3H]MK-801; read-out: NMDAR Ki ± SEM. Also noted: species or system Sprague Dawley rat. The procedure:
Radioligand Binding—Method B. Affinity of the test compounds for NMDAR was determined in radioligand binding experiments with [^3H]MK-801 by WuXi AppTec (Hong Kong) Limited, under the conditions described in Table 13.

Data set [4] deals with T1, serotonin transporter (SERT) (Homo sapiens, UniProt P31645).
T1 construct: expressed in transfected cells; host or cells: HEK293
T1 sequence (P31645 whole entry, species assumed): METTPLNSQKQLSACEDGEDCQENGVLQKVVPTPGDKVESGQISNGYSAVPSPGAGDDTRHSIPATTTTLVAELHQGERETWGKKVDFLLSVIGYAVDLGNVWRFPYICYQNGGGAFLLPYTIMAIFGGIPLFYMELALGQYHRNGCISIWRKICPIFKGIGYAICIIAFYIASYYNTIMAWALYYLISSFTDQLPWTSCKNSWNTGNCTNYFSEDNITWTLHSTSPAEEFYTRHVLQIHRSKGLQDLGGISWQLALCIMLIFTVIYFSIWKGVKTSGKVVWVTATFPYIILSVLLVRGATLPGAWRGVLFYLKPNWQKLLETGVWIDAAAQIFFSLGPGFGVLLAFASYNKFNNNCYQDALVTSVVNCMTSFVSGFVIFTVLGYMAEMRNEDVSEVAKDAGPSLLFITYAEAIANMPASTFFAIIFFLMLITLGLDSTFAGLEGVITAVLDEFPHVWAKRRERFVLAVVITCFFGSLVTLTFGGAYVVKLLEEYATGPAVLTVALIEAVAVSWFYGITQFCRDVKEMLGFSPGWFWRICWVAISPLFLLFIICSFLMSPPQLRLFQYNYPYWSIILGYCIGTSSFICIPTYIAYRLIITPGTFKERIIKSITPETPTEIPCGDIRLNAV
Put plainly: Fluorescent substrate uptake inhibition, SERT. The settings on record: 10 μM, HEK293 cells expressing SERT. In kind it is cell-based. The procedure:
(§3) Uptake Inhibition. The ability of test compounds to block monoamine uptake by SERT, NET, DAT, and VMAT2 was determined using the Neurotransmitter Transporter Uptake Assay Kit manufactured by Molecular Devices (Cat #R8173). Briefly, stably transfected cells expressing the MAT of interest (HEK293 cells for SERT and NET; CHO cells for DAT) were grown and plated into 384-well plates at a concentration of 20,000 cells per well. Plates were then incubated for 16-20 h at 37° C. and 5% CO2. The medium was then aspirated and replaced with 25 μL of assay buffer (20 mM HEPES in HBSS, containing 0.1% BSA) containing the test compounds at the appropriate concentrations. Plates were then centrifuged at 300 rpm for 15 s and then incubated at 37° C. for 30 minutes. At this time, 25 μL of the proprietary fluorescent dye solution was added, the plates were incubated at 37° C. for 60 minutes, and then fluorescence was quantified on a plate reader (excitation wavelength=440 nm, emission wavelength=520 nm). The proprietary dye solution contains a mixture of 1) a fluorescent dye that mimics the endogenous substrates of MATs and is thereby actively transported to the intracellular compartment in the absence of an inhibitor and 2) a masking dye that inhibits the fluorescence of dye 1 in the extracellular compartment. Therefore, the overall fluorescence of the system increases as the fluorescent dye is transported into the cells.

The target in data set [5] is T2, norepinephrine transporter (NET) (Homo sapiens, UniProt P23975).
T2 construct: expressed in transfected cells; host or cells: HEK293
T2 sequence (P23975 whole entry, species assumed): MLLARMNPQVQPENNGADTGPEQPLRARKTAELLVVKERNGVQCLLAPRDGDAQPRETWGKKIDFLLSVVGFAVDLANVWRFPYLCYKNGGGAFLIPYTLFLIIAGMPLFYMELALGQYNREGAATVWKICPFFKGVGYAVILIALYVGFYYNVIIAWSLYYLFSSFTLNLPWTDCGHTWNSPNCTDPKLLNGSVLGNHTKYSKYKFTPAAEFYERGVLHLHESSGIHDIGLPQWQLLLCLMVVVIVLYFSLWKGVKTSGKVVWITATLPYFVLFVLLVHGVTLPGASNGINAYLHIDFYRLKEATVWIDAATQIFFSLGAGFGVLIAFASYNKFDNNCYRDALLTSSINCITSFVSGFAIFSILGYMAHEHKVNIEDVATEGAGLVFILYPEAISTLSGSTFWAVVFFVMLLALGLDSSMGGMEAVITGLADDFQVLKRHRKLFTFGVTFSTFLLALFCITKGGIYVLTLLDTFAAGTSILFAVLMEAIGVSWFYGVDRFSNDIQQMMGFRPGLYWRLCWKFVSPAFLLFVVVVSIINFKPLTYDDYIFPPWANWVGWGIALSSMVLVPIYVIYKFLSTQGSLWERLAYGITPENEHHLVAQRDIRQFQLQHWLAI
Briefly: Fluorescent substrate uptake inhibition, NET. The class given is cell-based. To be noted: 10 μM, HEK293 cells expressing NET. The procedure:
as §3

Data set [6] has as its target T3, dopamine transporter (DAT) (Homo sapiens, UniProt Q01959).
T3 construct: expressed in transfected cells; host or cells: CHO (uptake)
Briefly: Fluorescent substrate uptake inhibition, DAT. To be noted: 10 μM, CHO cells expressing DAT. In kind it is cell-based. The procedure: as §3

Data set [7] concerns the target T4, vesicular monoamine transporter 2 (VMAT2) (Homo sapiens, UniProt Q05940).
T4 construct: expressed in transfected cells
Briefly: Fluorescent substrate uptake inhibition, VMAT2. The settings on record: 10 μM, transfected cells. In kind it is cell-based. The procedure: as §3

Data set [8] can be described thus: HLM stability (Low Activity, Alternative Method). In kind it is in vitro ADME. To be noted: both sexes, human, liver microsomes, pH 7.4, Condition 1 column, values marked *: Low Activity, 0.50 mg protein/mL. As to the method: (§4) HLM Stability (Low Activity, Alternative Method). Pooled HLM from adult male and female donors (Corning 452117) were used. Microsomal incubations were carried out in multi-well plates. Liver microsomal incubation medium consisted of PBS (100 mM, pH 7.4), MgCl2 (1 mM), and NADPH (1 mM), with 0.50 mg of liver microsomal protein per mL. Control incubations were performed by replacing the NADPH-cofactor system with PBS. Test compounds (1 μM, final solvent concentration 1.0%) were incubated with microsomes at 37° C. with constant shaking. Six time points over 60 minutes were analyzed, with 60 μL aliquots of the reaction mixture being drawn at each time point. The reaction aliquots were stopped by adding 180 μL of cold (4° C.) acetonitrile containing 200 ng/mL tolbutamide and 200 ng/mL labetalol as internal standards (IS), followed by shaking for 10 minutes, and then protein sedimentation by centrifugation at 4000 rpm for 20 minutes at 4° C. Supernatant samples (80 μL) were diluted with water (240 μL) and analyzed for parent compound remaining using a fit-for-purpose liquid chromatography-tandem mass spectrometry (LC-MS/MS) method.
as §2

Data set [9] is described as follows: MLM stability (Low Activity). In kind it is in vitro ADME, CD-1 mice. The settings on record: male, CD-1, mouse, liver microsomes, pH 7.4, Condition 1 (Low Activity), 0.50 mg protein/mL. The procedure:
as §4, with “MLM” for “HLM”, “Activity).” for “Activity, Alternative Method).”, “from” for “from adult”, “CD-1 mice (XenoTech M1000)” for “and female donors (Corning 452117)”
as §2

Data set [10] in a line: RLM stability (Low Activity). In kind it is in vitro ADME, Sprague Dawley rats. The settings on record: male, Sprague Dawley, rat, liver microsomes, pH 7.4, Condition 1 (Low Activity), 0.50 mg protein/mL. The procedure:
as §4, with “RLM” for “HLM”, “Activity).” for “Activity, Alternative Method).”, “from” for “from adult”, “Sprague Dawley rats (XenoTech R1000)” for “and female donors (Corning 452117)”
as §2

From patent US11344510B2, “Arylcyclohexylamine derivatives and their use in the treatment of psychiatric disorders” (Gilgamesh Pharmaceuticals, Inc., priority 2019, dated 2022) come the findings set out here.

Broadly, the half-life is the time needed for the level to fall by half in the phase considered. The low end stands for fast loss, the high end for slow loss. What is called microsomal CLint is a measure of how fast metabolising enzymes remove a compound, apart from limits set by blood flow. What is called Ki is the equilibrium dissociation constant of an inhibitor or competing ligand from its target. As a reminder, the inhibition is the relative decrease from the control value, in per cent.

T4 sequence (Q05940 whole entry, species assumed): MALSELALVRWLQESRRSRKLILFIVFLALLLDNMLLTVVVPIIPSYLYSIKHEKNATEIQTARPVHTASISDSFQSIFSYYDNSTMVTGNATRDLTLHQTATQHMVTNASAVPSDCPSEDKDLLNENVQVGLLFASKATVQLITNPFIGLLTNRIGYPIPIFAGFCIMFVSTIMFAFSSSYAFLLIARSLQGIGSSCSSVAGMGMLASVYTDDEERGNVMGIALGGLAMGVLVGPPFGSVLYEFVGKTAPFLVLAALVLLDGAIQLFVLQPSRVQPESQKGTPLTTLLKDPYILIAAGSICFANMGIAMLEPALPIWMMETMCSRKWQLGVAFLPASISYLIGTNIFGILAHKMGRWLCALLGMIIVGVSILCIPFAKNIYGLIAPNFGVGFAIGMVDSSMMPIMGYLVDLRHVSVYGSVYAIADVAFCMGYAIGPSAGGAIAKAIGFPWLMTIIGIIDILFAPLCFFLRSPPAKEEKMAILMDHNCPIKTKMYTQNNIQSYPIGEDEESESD
T3 sequence (Q01959 whole entry, species assumed): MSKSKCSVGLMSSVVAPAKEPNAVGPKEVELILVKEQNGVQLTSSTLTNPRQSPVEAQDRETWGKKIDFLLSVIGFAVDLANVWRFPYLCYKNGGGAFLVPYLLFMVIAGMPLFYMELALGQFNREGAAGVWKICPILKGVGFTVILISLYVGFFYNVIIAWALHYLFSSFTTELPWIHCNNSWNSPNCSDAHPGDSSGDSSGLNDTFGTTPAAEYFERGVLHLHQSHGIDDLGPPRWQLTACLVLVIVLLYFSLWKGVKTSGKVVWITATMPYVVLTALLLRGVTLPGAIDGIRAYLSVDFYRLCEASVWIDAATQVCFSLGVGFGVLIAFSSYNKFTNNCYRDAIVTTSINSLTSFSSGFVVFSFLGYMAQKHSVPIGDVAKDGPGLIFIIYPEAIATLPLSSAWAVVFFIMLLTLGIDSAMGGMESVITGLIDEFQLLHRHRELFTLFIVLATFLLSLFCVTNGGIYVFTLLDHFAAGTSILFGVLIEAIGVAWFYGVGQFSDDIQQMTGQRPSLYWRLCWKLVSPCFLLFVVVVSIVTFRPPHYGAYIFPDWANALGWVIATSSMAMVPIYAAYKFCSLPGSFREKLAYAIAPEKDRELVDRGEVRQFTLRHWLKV

Turning to `O=C1CCCC[C@]1(NCCF)c1ccccc1` [Compound 86S, (S)-2-((2-fluoroethyl)amino)-2-phenylcyclohexan-1-one], the half-life at 1 μM in data set [1] worked out at 61.9 min; in data set [2] it was 8.5 min. Besides, the microsomal CLint at 1 μM in [1] came out at 11 µL/min/mg; in [2], 82 µL/min/mg. For the same compound, in [3], the Ki was found to be 1.3 µM. In addition, the inhibition at 10 µM in [4] was 14.1%; in [5], 12.2%; in data set [6] it was 20.8%; in data set [7], -5.5%.
As to `CNC1(c2ccc(C)cc2)CCCCC1=O` (racemic) [Compound 119rac, 2-(methylamino)-2-(p-tolyl)cyclohexan-1-one], the half-life at 1 μM is above 145 min in data set [8], 75.5 min in data set [9] and 3.3 min in data set [10]. Further, the microsomal CLint at 1 μM in [8] is below 9.6 µL/min/mg; in data set [9] it was 18.4 µL/min/mg; in [10] it was 417 µL/min/mg. Moreover, the Ki in data set [3] was 16.7 µM. The inhibition at 10 µM in data set [4] was found to be 42%; in data set [5], 5%; in [6], 10.3%; in [7] it was 48.1%.
On to `O=C1CCCC[C@@]1(NCCF)c1ccccc1` [Compound 86R, (R)-2-((2-fluoroethyl)amino)-2-phenylcyclohexan-1-one], for which the values for the half-life at 1 μM in [1] and in data set [2] were 55.8 min and 6.2 min, respectively. Further, the microsomal CLint at 1 μM in data set [1] came out at 12 µL/min/mg; in data set [2], 113 µL/min/mg. Besides, in data set [3], the Ki was found to be 7.1 µM. The inhibition at 10 µM in data set [4] was 7.1%; in data set [5], 11.4%; in data set [6], 13.6%; in data set [7] it was -8.9%.
On to `O=C1CCCC[C@]1(NCCO)c1ccccc1` [Compound 30S, (S)-2-((2-hydroxyethyl)amino)-2-phenylcyclohexan-1-one], for which the half-life at 1 μM in data set [1] worked out at 11.4 min; in [2], 4.3 min. The values for the microsomal CLint at 1 μM in [1] and in data set [2] were 61 µL/min/mg and 162 µL/min/mg, respectively. In addition, the Ki in [3] turned out to be 23 µM. Further, the inhibition at 10 µM turned out to be 51.9% in data set [4], 22.3% in [5], 18.7% in [6] and 23.2% in data set [7].
In the case of `CN[C@@]1(c2ccccc2C)CCCCC1=O` [Compound 38R, (R)-2-(methylamino)-2-(o-tolyl)cyclohexan-1-one], the half-life at 1 μM in [1] was found to be 111 min; in data set [2] it was 30 min. Besides, the intrinsic clearance (microsomal CLint) at 1 μM in data set [1] is 6 µL/min/mg; in data set [2], 23 µL/min/mg. Besides, in data set [3], the Ki is 0.74 µM. The inhibition at 10 µM was 41.5% in [4], 20.3% in [5], -2.2% in data set [6] and 2.9% in [7].
For `O=C1CCCC[C@@]1(NCCO)c1ccccc1` [Compound 30R, (R)-2-((2-hydroxyethyl)amino)-2-phenylcyclohexan-1-one], the half-life at 1 μM in [1] worked out at 23 min; in data set [2], 6.5 min. In addition, the microsomal CLint at 1 μM in data set [1] stood at 30 µL/min/mg; in [2], 106 µL/min/mg. Also, in data set [3], the Ki was above 23 µM. The inhibition at 10 µM was 1.2% in data set [4], 3.5% in data set [5], 8.5% in [6] and 16.3% in data set [7].
Take `CN[C@]1(c2ccccc2C)CCCCC1=O` [Compound 38S, (S)-2-(methylamino)-2-(o-tolyl)cyclohexan-1-one]: the half-life at 1 μM came out at 110 min in [1] and 22.4 min in data set [2]. Besides, the values for the microsomal CLint at 1 μM in [1] and in [2] were 6 µL/min/mg and 31 µL/min/mg, respectively. Moreover, the Ki in [3] turned out to be 0.24 µM. In addition, the inhibition at 10 µM in [4] was 39.7%; in data set [5] it was 2.7%; in data set [6], 8.3%; in [7] it was -11.2%.
